From ChEMBL document CHEMBL4414609, “High-Affinity Alkynyl Bisubstrate Inhibitors of Nicotinamide N-Methyltransferase (NNMT)” (J Med Chem, 2019) come the findings set out here.

In series [1] the target is T1, TPMT (thiopurine S-methyltransferase) (Homo sapiens, UniProt P51580).
T1 sequence (P51580 whole entry): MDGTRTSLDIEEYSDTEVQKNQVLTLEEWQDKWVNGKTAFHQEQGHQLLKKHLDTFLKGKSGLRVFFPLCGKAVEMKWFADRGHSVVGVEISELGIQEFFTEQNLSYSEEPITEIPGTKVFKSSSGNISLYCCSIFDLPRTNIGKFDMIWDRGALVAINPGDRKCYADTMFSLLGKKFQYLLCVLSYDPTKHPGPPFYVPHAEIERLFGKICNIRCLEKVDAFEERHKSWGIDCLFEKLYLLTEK
Put plainly: Inhibition of human TPMT expressed in Escherichia coli assessed as reduction in SAH level at 1 uM using 6-mercaptopurine as substrate in presence of SAM incubated for 30 mins by LC-MS/MS analysis relative to control. The settings on record: recombinant human TPMT expressed in Escherichia coli, probe 6-mercaptopurine.

Series [2] has as its target INMT (indolethylamine N-methyltransferase) (Homo sapiens, UniProt O95050). Put plainly: Inhibition of wild type human INMT expressed in Escherichia coli at 1 uM using tryptamine as substrate in presence of SAM incubated for 30 mins by MTase-Glo assay relative to control. The conditions noted are these: probe tryptamine.
The nature of series [3]: Permeability across apical to basolateral side in human Caco2 cells after 60 mins by HPLC-MS/MS analysis. The series is classed as ADME, cell-based. The conditions noted are these: caco-2, 1 h.
In series [4] the target is DNA (cytosine-5)-methyltransferase 3A (Homo sapiens, UniProt Q9Y6K1). Put plainly: Inhibition of human DNMT3a expressed in insect sf9 cells assessed as reduction in methylated poly(dI-dC)-Poly(dI-dC) level using poly(dI-dC)-poly(dI-dC) as substrate in presence of [3H] SAM incubated for 10 mins by scintillation counting.
Series [5] deals with T2, Nicotinamide N-methyltransferase (Homo sapiens, UniProt P40261).
T2 sequence (P40261 whole entry): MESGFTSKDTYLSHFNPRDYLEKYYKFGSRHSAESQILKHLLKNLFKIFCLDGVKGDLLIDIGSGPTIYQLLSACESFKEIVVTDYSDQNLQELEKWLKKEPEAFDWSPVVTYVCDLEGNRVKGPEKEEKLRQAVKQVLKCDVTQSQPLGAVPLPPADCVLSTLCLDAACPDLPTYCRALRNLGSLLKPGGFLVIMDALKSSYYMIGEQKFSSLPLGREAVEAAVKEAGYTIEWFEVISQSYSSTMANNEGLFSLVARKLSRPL
Put plainly: Inhibition of N-terminal His6-tagged wild type human NNMT expressed in Escherichia coli NiCo21(DE3) assessed as reduction in 1-methylquinolinium level using quinoline as substrate in presence of SAM and measured every 27 seconds for 5.5 mins by fluorescence-based assay.

In series [6] the target is T3, COMT (catechol O-methyltransferase) (Homo sapiens, UniProt P21964).
T3 sequence (P21964 whole entry): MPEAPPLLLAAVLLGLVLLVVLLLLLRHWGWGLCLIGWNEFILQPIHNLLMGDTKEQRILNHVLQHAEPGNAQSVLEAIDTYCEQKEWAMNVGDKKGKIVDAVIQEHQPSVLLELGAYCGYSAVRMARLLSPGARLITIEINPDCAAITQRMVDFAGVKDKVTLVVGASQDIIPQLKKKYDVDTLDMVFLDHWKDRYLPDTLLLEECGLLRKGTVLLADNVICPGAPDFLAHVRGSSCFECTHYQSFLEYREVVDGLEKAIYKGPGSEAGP
Briefly: Inhibition of human COMT expressed in Escherichia coli at 10 uM assessed as reduction in SAH level using pyrocatechol as substrate in presence of SAM incubated for 15 mins by LC-MS/MS analysis relative to control. The conditions noted are these: recombinant human COMT expressed in Escherichia coli, probe pyrocatechol.

Series [7] deals with GAMT (guanidinoacetate N-methyltransferase) (Homo sapiens, UniProt Q14353). Briefly: Inhibition of human GAMT expressed in Escherichia coli at 1 uM assessed as reduction in SAH level using guanidineacetic acid as substrate in presence of SAM incubated for 30 mins by LC-MS/MS analysis relative to control. The conditions noted are these: recombinant human GAMT expressed in Escherichia coli, probe guanidineacetic acid.

For a further series, the system named is U2OS. Briefly: Cytotoxicity against human U2OS cells at 100 uM after 48 hrs by CellTiter-Glo luminescent cell viability. Type of series: cell-based.

As a reminder, the inhibition is the percentage by which the read-out fell short of the control. The IC50 is the concentration that gives 50% inhibition.

DNA (cytosine-5)-methyltransferase 3A, sequence (Q9Y6K1 whole entry, looked up): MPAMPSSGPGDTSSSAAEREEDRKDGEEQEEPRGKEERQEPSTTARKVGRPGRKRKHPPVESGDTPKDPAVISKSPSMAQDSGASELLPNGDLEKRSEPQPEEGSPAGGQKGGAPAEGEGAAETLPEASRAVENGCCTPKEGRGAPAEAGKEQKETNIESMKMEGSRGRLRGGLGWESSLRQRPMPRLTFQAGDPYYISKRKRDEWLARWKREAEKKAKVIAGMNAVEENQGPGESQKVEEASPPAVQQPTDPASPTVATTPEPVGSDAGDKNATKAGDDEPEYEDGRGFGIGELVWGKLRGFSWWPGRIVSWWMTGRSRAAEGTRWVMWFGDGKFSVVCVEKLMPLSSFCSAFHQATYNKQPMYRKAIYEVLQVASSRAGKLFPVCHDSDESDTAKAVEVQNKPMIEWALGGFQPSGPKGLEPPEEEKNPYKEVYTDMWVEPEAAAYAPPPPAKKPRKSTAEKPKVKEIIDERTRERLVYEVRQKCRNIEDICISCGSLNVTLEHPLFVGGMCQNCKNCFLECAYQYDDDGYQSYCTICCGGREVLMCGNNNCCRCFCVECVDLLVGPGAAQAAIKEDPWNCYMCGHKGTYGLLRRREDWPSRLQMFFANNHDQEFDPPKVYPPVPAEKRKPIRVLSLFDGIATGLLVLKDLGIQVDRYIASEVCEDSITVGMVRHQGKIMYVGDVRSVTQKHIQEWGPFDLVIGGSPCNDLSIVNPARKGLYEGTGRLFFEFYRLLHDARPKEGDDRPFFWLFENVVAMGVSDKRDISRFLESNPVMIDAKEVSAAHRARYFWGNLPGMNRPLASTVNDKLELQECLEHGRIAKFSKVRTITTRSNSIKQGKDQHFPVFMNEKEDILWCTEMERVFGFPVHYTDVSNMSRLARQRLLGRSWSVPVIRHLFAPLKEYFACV
INMT (indolethylamine N-methyltransferase), sequence (O95050 whole entry): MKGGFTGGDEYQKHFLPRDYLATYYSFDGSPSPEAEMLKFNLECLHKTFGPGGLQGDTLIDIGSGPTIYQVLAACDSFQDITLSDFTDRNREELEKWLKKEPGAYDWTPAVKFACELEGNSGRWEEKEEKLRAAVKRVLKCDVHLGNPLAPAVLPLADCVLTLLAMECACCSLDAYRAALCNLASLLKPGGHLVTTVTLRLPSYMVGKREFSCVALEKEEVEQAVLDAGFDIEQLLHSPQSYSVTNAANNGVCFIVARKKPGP

With `NC(=O)c1cccc(C#C[C@@H](CC[C@H](N)C(=O)O)C[C@H]2O[C@@H](n3cnc4c(N)ncnc43)[C@H](O)[C@@H]2O)c1`, the results for the inhibition at 0.5 h, 1 µM in series [1], in series [2] and in series [7] were 51%, 14% and 0%, respectively. The permeability entry in series [3] is reported as “Impermeable”. In addition, the IC50 in series [4] stood at 7600 nM. In addition, the Ki in series [5] (read-out: Ki) is 0.5 nM; in series [5] (read-out: pKi (converted)) it was 0.501 nM. In addition, in series [6], the inhibition at 0.25 h, 10 µM is 43%. In addition, the Activity result with U2OS is reported as “Non-Toxic”.
